Experimental data as given in PMC5581131, “The novel sphingosine-1-phosphate receptors antagonist AD2900 affects lymphocyte activation and inhibits T-cell entry into the lymph nodes” (Oncotarget, 2017).

Columns and labels:
[1] = system: S1P1 expression on PBMCs; assay: S1P1 cell surface expression on PBMCs, FACS; assay type: cell-based, human
Procedure: Among the S1P receptors, S1P1 is the most widespread receptor in the immune system and is expressed by several cell populations. […] Since AD2900 functions as an antagonist on S1P1, we next checked whether AD2900 affects S1P1 expression on PBMCs; FTY720 and SEW2817 were used as positive controls. The percentage of cells expressing S1P1 on their cell surface was detected by FACS analysis and was calculated as % of expression in non-treated cells. Low doses of AD2900 led to a decreased number of S1P1-expressing PBMCs after a 30-min treatment (Figure 3A and Supplementary Figure 2C). […] The highest effect was obtained at 100 nM with a mean of 51% ± 9% expression as compared to untreated control PBMCs.
Figure 3 AD2900 downregulates the percentage of S1P1- and CCR7-expressing cells in PBMCs (A, B) The percentages of S1P1-positive PBMCs after the treatment with different concentrations of AD2900, FTY720, or SEW2871 and at different time points were examined by FACS analysis. S1P1 expression was tested in PBMCs after a 30-min treatment with AD2900 at different concentrations (A) or after a 30-min or 60-min treatment with 100 nM AD2900, FTY720, or SEW2871 (B). (C) The percentage of CCR7-positive PBMCs was tested by FACS analysis after a 30-min treatment with 100 nM AD2900, FTY720, or SEW2871. All the significances are compared to untreated PBMCs. Results summarize the results of at least four independent experiments. Results of Student’s t-test: *(P < 0.05, two-tailed test), ** (P < 0.01, two-tailed test), *** (P < 0.001, two-tailed test), **** (P < 0.0001, two-tailed test).
Human PBMCs: For the apoptosis test, anti-AnnexinV-FITC (BD Biosciences, CA, USA) was used. To analyze S1P1 surface expression on AD2900-treated PBMCs, the following were used: anti-S1P1 (Alomone labs, Israel), anti-EDG-1 (Abcam, UK), Dylight405-conjugated AffiniPure Goat Anti-Rabbit lgG (H + L), and APC-conjugated AffiniPure F(ab')2 Goat Anti-Rabbit lgG(H + L) (Jackson ImmonoResearch, USA). For CCR7 expression, we used anti-CCR7-APC (Biolegend, CA, USA).

[2] = system: CEM/C1; assay: XTT viability assay, CEM/C1; assay type: cell-based, human; settings: 1-day treatment, compared with Jurkat (>10 μM)
Procedure: Figure 1 AD2900 inhibits human lymphocyte proliferation in allogeneic activation (A, B) The levels of proliferative response of human peripheral blood lymphocytes (PBMCs) after 1-day pretreatment with different concentrations of AD2900, AD2750, YZ138, YZ158, and YZ297 (A) or AD2900, FTY720, and SEW2871 (B) were tested by human allogeneic mixed lymphocyte reaction (MLR) assay, followed by a [3H] thymidine incorporation analysis. (C) Apoptosis of AD2900-treated activated PBMCs was tested by AnnexinV-propidium iodide (PI) FACS analysis following 1-day AD2900 pretreatment and MLR. All the samples were compared to the untreated PBMC control. (D) IFN-γ secretion from activated PBMCs was tested by ELISA following a 1-day AD2900 pretreatment in MLR. On the 5th day of hMLR, supernatants were collected and assayed for the level of IFN-γ. (E) Jurkat cell viability after a 1-day treatment with different concentrations of AD2900, FTY720, and SEW2871 was tested by XTT viability assay. (F) H9, CEM/C1, and Molt4 cell viability after a 1-day treatment with different concentrations of AD2900 was tested by XTT viability assay. Graphs summarize the results of at least three independent experiments. Results of Student’s t-test: *(P < 0.05, two-tailed test), ** (P < 0.01, two-tailed test), *** (P < 0.001, two-tailed test), **** (P < 0.0001, two-tailed test). […]

| SMILES | effect on S1P1 cell surface expression, 30-min versus 60-min treatment ([1]; 100 nM) | S1P1 expression as compared to untreated control PBMCs ([1]; 100 nM, 30-min treatment, highest effect) | S1P1 expression level ([1]; 4000 nM, 30-min treatment) | concentrations that significantly and dose-dependently decreased S1P1 expression ([1]; 30-min treatment) [nM] | cell viability, CEM/C1 [2] |
| --- | --- | --- | --- | --- | --- |
| CCCCCCCCc1ccc(CCC(N)(CO)CO)cc1 [FTY720, Fingolimod, reference compound] | smaller reduction of S1P1 cell surface expression, but its effect was not reversed after a 60-min treatment |  |  |  |  |
| CCCCCCCCCCCCCCCCNC(CO)(CO)CO [AD2900] | transient and reversed shortly after a 60-min treatment | 51% ± 9% | returned to that of untreated control | 25 to 2000 | reduced cell viability could be detected even at lower concentrations |
